# Values quoted from earlier work in paper PMC7682800 (Arteriosclerosis, Thrombosis, and Vascular Biology, 2020).
# Tested on: PAR1
# Details: oral administration
compound,measurement,value
CCOC(=O)N[C@@H]1CC[C@@H]2[C@@H](C1)C[C@H]1C(=O)O[C@H](C)[C@H]1[C@H]2/C=C/c1ccc(-c2cccc(F)c2)cn1 [vorapaxar],Pharmacodynamic half-life,≥ 4 weeks
